Among the data in PubChem BioAssay AID179 (DTP/NCI, 2004) are EC50, IC50 and outcome values, retold here.

The test system of this experiment is CEM cells HIV-1 protection, formazan growth assay. Description: NCI AIDS Antiviral Assay. The following applies: for IC50: measured here: growth of uninfected CEM cells. The gist of the method: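 Five concentrations of each compound were applied to infected and uninfected human CEM cells. Protection from HIV-1 was judged from growth measured with a soluble formazan assay.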

Active and inactive are the calls of the source.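 Rule for the calls: active = compounds giving half or more protection of infected cells from virus-caused growth loss, again on retest; inactive = the rest.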 Some results are limits rather than exact numbers.

With `O=c1oc(-c2ccccc2NS(=O)(=O)c2ccccc2)nc2cc(Cl)ccc12`, the EC50 was more than 200 µM and the IC50 was found to be 1.45 µM. The matching figures for `C=C1C(=O)O[C@H]2C[C@@]3(COC(C)=O)C=COC=C(COC(=O)C(C)C)C3CC12` (some centres not stated): more than 200 µM and 30.9 µM. The matching figures for `CCC(=N\N=C(N)N)/C(C)=N/N=C(N)N`: more than 23.4 µM and more than 23.4 µM. Regarding `Cc1ccc(C2(O)CSC(=NC34CC5CC(CC(C5)C3)C4)N2C(P(=O)(O)O)P(=O)(O)O)cc1` (configuration not stated), the EC50 is more than 200 µM and the IC50 amounted to 40.7 µM. Take `COc1ccc2c(c1)c(=O)c1c(NCCNCCO)ccc3c(=O)n(CCN(C)C)c(=O)n2c31`: the EC50 is more than 0.0427 µM and the IC50 came to 0.0339 µM. Consider `C[Si](C)(C)c1ccc(-c2sc(-c3ccc([Si](C)(C)C)s3)c3c2C[Si]2(C3)Cc3c(-c4ccc([Si](C)(C)C)s4)sc(-c4ccc([Si](C)(C)C)s4)c3C2)s1`, for which the EC50 is more than 5.75 µM and the 50% inhibitory concentration (IC50) was more than 5.75 µM. With `Cn1c2c(c3ccccc31)CC(=O)N1CCCC(C1)CC21OCCO1` (configuration not stated), the EC50 is more than 200 µM and the half-inhibitory concentration (IC50) is more than 200 µM. `CN(C)c1ccc(/C=C2\Cc3ccccc3C2=O)cc1`: the EC50 was more than 14.5 µM and the concentration for half-maximal inhibition (IC50) is more than 14.5 µM. In the case of `CCN(CC)CCOC(=O)c1cc2ccccc2[nH]1`, the EC50 is more than 200 µM and the IC50 was more than 200 µM.

On to `CCOC(=O)c1c(N2CCOCC2)[nH]c(=O)c(C(c2cccs2)c2c(O)c(C(=O)OCC)c(N3CCOCC3)[nH]c2=O)c1O`, for which the EC50 is more than 200 µM and the IC50 is more than 200 µM.

Take `Cc1cc(O)c(/C=N/c2nc(-c3cccc([N+](=O)[O-])c3)cs2)c(=O)o1`: the EC50 is more than 200 µM and the IC50 is 35.5 µM. As to `CC1=NNC(=O)C1C(CC(=O)c1c[nH]c2ccccc12)C(=O)O` (configuration not stated), the EC50 was more than 200 µM and the 50% inhibitory concentration (IC50) was determined as 126 µM. Turning to `O=C(CCc1cc(O)cc(O)c1)NCCc1cc(OCc2ccccc2)cc(OCc2ccccc2)c1`, the outcome was inactive. On to `Cc1cc(Cl)ccc1N=NC(=O)NNc1ccc(Cl)cc1C`, for which the EC50 was more than 200 µM and the IC50 was found to be 52.5 µM.

On to `O=c1nc2[nH]nc(-c3ccccc3)c2n[nH]1`, for which the outcome was inactive.

For the molecule `Cc1ccc(SC23C=CC(CC24CCOC4=O)OC3=O)cc1` (configuration not stated), the EC50 is more than 200 µM and the IC50 was more than 200 µM. With `CCCc1cc(=O)oc2c3c(cc(OS(=O)(=O)c4ccc(C)cc4)c12)O[C@H](C)[C@H](C)C3=O`, the EC50 is more than 151 µM and the 50% inhibitory concentration (IC50) is 95.5 µM. `CC1(C)CCCC2C1=NOC2O` (configuration not stated): the EC50 was more than 1480 µM and the IC50 is more than 1480 µM. Turning to `O=C(O)C1CCC(c2ccc(Oc3ccccc3)cc2)=N1` (configuration not stated), the EC50 is more than 200 µM and the half-inhibitory concentration (IC50) was more than 200 µM. On to `O=C1CN(c2cccc(C(F)(F)F)c2)C(=O)CN1NCNN1CC(=O)N(c2cccc(C(F)(F)F)c2)CC1=O`, for which the EC50 is more than 200 µM and the concentration for half-maximal inhibition (IC50) is more than 200 µM. Consider `CN1C=C/C(=C/[N+](=O)[O-])N(C)C1=O`, for which the EC50 was more than 200 µM and the IC50 is more than 200 µM.

As to `[N-]=[N+]=NC12CC3C4CC5CC3C(C1)C(C5)C4C2`, the EC50 was more than 282 µM and the concentration for half-maximal inhibition (IC50) stood at 162 µM.

As for `CC1(CCCO)CCCCCCCCCC(C)(CCCO)C1=O` (configuration not stated), the EC50 is more than 200 µM and the half-inhibitory concentration (IC50) came to 115 µM. In the case of `CSc1ccc(C(=C=C=C(c2ccc(SC)s2)c2ccc(SC)s2)c2ccc(SC)s2)s1`, the EC50 is more than 200 µM and the IC50 was more than 200 µM.

`C[C@H]1c2c(n(C3OC(CO)C(O)C3O)c(=O)[nH]c2=O)O[C@@H]1c1ccccc1` (some centres not stated): the EC50 was more than 200 µM and the IC50 is more than 200 µM. With `COc1cccc(NCC(=O)Nn2c(-c3ccccc3)nc3ccccc3c2=O)c1`, the EC50 was more than 200 µM and the IC50 was determined as 112 µM. On to `Cc1cn(C2CC(CCN(O)CC3OC(n4cc(C)c(=O)[nH]c4=O)CC3O[Si](C)(C)C(C)(C)C)C(CO[Si](C)(C)C(C)(C)C)O2)c(=O)[nH]c1=O` (configuration not stated), for which the EC50 was more than 200 µM and the IC50 worked out at 11.5 µM. Regarding `COc1ccccc1/C(=N\OCCC(=O)O)c1cccs1`, the outcome was inactive. As for `O=C(c1ccccc1)[C@H]1Nc2ccc(Cl)cc2[C@H]2c3ccccc3O[C@H]21`, the EC50 was more than 27.5 µM and the IC50 was more than 27.5 µM. On to `O=C1/C(=C\c2ccccc2)c2ccccc2N1/N=C\c1ccccc1`, for which the EC50 was more than 30.9 µM and the IC50 was more than 30.9 µM. For the molecule `[O]=[W](=[O])([OH])[OH]`, the result was inactive. Take `NC1=NN(c2ccccc2)C(=O)C1/C(=N\NC(=O)c1cc2ccccc2cc1O)C(=O)Nc1ccc(Cl)c(Cl)c1` (configuration not stated): the EC50 is more than 45.7 µM and the concentration for half-maximal inhibition (IC50) was more than 45.7 µM.

Turning to `O=C(Nc1cccc([N+](=O)[O-])c1)/C(=N\NC(=O)c1ccncc1)c1nc2ccc([N+](=O)[O-])cc2[nH]c1=O`, the EC50 is more than 135 µM and the concentration for half-maximal inhibition (IC50) stood at 47.9 µM. Consider `C1CCCCC/C2=C(\CCCC1)CSCCCS2`, for which the EC50 is more than 200 µM and the IC50 stood at 58.9 µM.

`COC(=O)C(Cc1nc2ccccc2[nH]c1=O)C(NO)C(=O)Nc1c(Cl)cc([N+](=O)[O-])cc1Cl` (configuration not stated): the EC50 was more than 51.3 µM and the IC50 was more than 51.3 µM. Consider `O=C(N(O)c1ccccc1Cl)C(O)(c1ccccc1)c1ccccc1`, for which the EC50 is more than 20 µM and the IC50 was more than 20 µM. For the molecule `O=C(NNC(=S)Nc1ccccc1)c1ccccc1Nc1ccccc1C(=O)NNC(=S)Nc1ccccc1`, the 50% effective concentration (EC50) was more than 30.9 µM and the half-inhibitory concentration (IC50) stood at 30.2 µM.

On to `O=[N+]([O-])c1ccc2c(c1)Sc1ccccc1N2`, for which the EC50 was more than 200 µM and the half-maximal inhibitory concentration (IC50) came out at 60.3 µM. As to `CC1(C)C(=O)/C=C\C(=O)C(C)(C)C2=CC=C(O2)C(C)(C)C(=O)C(Br)C(Br)C(=O)C(C)(C)C2=CC=C1O2` (configuration not stated), the result was inactive. Consider `CC1CN=C(Nc2cccc(F)c2)S1` (configuration not stated), for which the EC50 was 0.191 µM and the concentration for half-maximal inhibition (IC50) was more than 200 µM. With `COC1CC(OC2C(C)OC(OC3C(C)OC(OC4C(O)CC(O[C@H]5CC[C@@]6(C)C(=CC[C@]7(O)[C@@H]6C[C@@H](OC(C)=O)[C@@]6(C)[C@]7(O)CC[C@@]6(O)C(C)=O)C5)OC4C)CC3OC)CC2OC)OC(C)C1O` (some centres not stated), the EC50 was more than 200 µM and the half-maximal inhibitory concentration (IC50) is more than 200 µM. Take `COc1c(Cl)cc(C(=CCNC(=O)C[C@H]2CC[C@@]3(C)[C@@H](CC[C@@H]4[C@@H]3CC[C@]3(C)[C@@H](CC(=O)NCC=C(c5cc(Cl)c(OC)c(C(=O)O)c5)c5cc(Cl)c(OC)c(C(=O)O)c5)CC[C@@H]43)C2)c2cc(Cl)c(OC)c(C(=O)O)c2)cc1C(=O)O`: the concentration giving a half-maximal response (EC50) is 42.7 µM and the half-maximal inhibitory concentration (IC50) amounted to 186 µM. For `CNCC(=O)c1ccc(O)c(O)c1`, in that order: more than 200 µM and more than 200 µM. On to `CC(=O)OC1CC2C(C)(C)CCC[C@]2(C)C2=C1C(O)=C(C(C)C)C(=O)C2=O` (some centres not stated), for which the result was inactive. Consider `CCOC(=O)NC(O)C(Cl)(Cl)Cl` (configuration not stated), for which the EC50 was more than 200 µM and the IC50 is more than 200 µM. On to `COC1/C=C/OC2(C)Oc3c(C)c(O)c4c(O)c(cc(OCC(=O)N5CCC(O)(Cc6ccccc6)CC5)c4c3C2=O)NC(=O)/C(C)=C/C=CC(C)C(O)C(C)C(O)C(C)C(OC(C)=O)C1C` (configuration not stated), for which the EC50 is more than 112 µM and the IC50 is 30.9 µM. The matching figures for `CC(=O)/C=C(\c1ccccc1)c1c(O)c2ccccc2oc1=O`: more than 200 µM and 141 µM. Turning to `O=C1/C(=C/c2ccco2)N=C2Sc3c(nc[nH]c3=O)N12`, the EC50 is more than 200 µM and the IC50 is more than 200 µM.

On to `CCCN1CCC=C([Si](C)(C)C)C1`, for which the result was inactive. For `CC(=O)OCCn1cnc2nc(Nc3ccccc3)nc(Cl)c21`, the EC50 is more than 200 µM and the half-inhibitory concentration (IC50) is 70.8 µM. Consider `COC1OC(=O)c2ccccc21` (configuration not stated), for which the outcome was inactive.

As to `O=c1c2ccccc2oc2nc3ccc(Cl)cc3n12`, the EC50 was more than 37.2 µM and the IC50 was more than 37.2 µM.

Turning to `CC1=C(C#N)S(=O)(=O)c2c(oc(C)c2C)N1`, the EC50 is more than 200 µM and the IC50 was more than 200 µM. For `CSc1nc(SC)c2ncn(C3CC(Oc4ccc(C)cc4)C(COc4ccc(C)cc4)O3)c2n1` (configuration not stated), the EC50 is more than 100 µM and the half-maximal inhibitory concentration (IC50) came to 66.1 µM. Take `Cc1cc(S(=O)(=O)Nc2nc(N)nc(N(C)C)n2)c(SCC(=O)O)cc1Cl`: the EC50 was more than 200 µM and the half-inhibitory concentration (IC50) was more than 200 µM. As for `CC1=NN(C(=O)CC(=O)Nc2cccc(Cl)c2)C(=O)C1N=Nc1ccc(C(=O)O)cc1` (configuration not stated), the EC50 is more than 200 µM and the 50% inhibitory concentration (IC50) was 52.5 µM.

For `CN(C)c1ccc2nc(C(=O)O)c(=O)n(C)c2c1`, the EC50 is more than 200 µM and the IC50 is more than 200 µM. Turning to `CC1(C)CCc2cc3c(cc2O1)OC(C)(C)C1c2cc(O)c(OCc4ccccc4)cc2OC31` (configuration not stated), the EC50 was more than 200 µM and the half-inhibitory concentration (IC50) was 61.7 µM. Regarding `O=C(Nc1ccccc1)N1CC(CN2CCN(c3ccccc3)CC2)OC1=O` (configuration not stated), the EC50 is more than 200 µM and the half-inhibitory concentration (IC50) was more than 200 µM. Take `Cn1c(=O)c2c(nc3sc4nc5ccccc5nc4n32)n(C)c1=O`: the EC50 was more than 200 µM and the IC50 was more than 200 µM. In the case of `O=C1NC(=O)C2(CCN(Cc3ccccc3)CC2)N1c1ccccc1`, the EC50 was more than 200 µM and the half-inhibitory concentration (IC50) is more than 200 µM. For the molecule `Cc1ccc(N=Nc2c(C)nn(-c3ccccc3)c2-c2ccccc2)c(Br)c1`, the result was inactive. In the case of `O=C1OCc2cccc3c2-c2c1cccc2C(=O)OC3`, the outcome was inactive. `CC1(C)C/C(=N/O)c2c(nc3ccc4ccccc4c3c2-c2ccc(Cl)cc2)C1`: the EC50 was more than 100 µM and the IC50 worked out at 37.2 µM. Consider `NCCSSC/C=C\CSSCCN`, for which the outcome was inactive. Take `CC1=NOC2(C1)C(=O)Nc1ccccc12` (configuration not stated): the EC50 was more than 200 µM and the 50% inhibitory concentration (IC50) came out at 141 µM.

For `COc1cc(/C=C2\NC(=O)N(/C=C3\C(=O)Oc4ccccc4C3=O)C2=O)ccc1O`, the EC50 is more than 200 µM and the half-inhibitory concentration (IC50) is more than 200 µM. Take `CCc1[nH]c(=O)c2oc3cc4ccccc4cc3c2c1C(=O)O`: the EC50 is more than 200 µM and the IC50 is more than 200 µM. As to `CN1CCN(/C(N)=C(\C#N)C(=O)Nc2ccc(Cl)cc2)CC1`, the EC50 was more than 200 µM and the IC50 is more than 100 µM.
